Where two headings read alike, the source gives them in different places.
Legend:
OGA = biological target: T1, OGA (Homo sapiens, UniProt O60502); conditions: background, literature; cited from earlier work
T1 sequence (O60502 1-916): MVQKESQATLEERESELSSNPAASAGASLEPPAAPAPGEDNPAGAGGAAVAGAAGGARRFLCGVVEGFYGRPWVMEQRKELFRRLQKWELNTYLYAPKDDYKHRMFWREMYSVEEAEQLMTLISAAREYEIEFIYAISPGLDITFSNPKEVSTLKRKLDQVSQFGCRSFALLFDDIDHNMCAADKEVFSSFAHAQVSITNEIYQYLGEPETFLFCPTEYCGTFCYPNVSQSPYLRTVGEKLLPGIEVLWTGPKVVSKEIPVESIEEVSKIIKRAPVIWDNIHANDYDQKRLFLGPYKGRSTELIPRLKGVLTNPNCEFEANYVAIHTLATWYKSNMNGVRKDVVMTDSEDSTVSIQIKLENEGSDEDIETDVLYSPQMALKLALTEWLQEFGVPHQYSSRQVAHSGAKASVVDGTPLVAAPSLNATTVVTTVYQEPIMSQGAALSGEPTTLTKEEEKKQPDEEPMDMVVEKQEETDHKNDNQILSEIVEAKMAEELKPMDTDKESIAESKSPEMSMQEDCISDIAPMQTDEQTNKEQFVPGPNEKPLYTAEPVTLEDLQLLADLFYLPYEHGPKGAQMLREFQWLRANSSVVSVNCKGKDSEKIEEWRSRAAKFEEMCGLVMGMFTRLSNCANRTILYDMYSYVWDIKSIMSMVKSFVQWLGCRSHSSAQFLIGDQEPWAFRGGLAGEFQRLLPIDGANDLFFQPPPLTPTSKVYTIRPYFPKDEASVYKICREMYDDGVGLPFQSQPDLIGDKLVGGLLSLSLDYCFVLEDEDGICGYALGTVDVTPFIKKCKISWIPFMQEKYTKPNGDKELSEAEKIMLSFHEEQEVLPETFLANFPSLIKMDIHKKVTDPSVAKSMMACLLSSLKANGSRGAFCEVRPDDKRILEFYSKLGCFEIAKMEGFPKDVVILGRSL

[1] = biological target: bacterial O-GlcNAcase (bOGA) (NagJ from Clostridium perfringens) (Clostridium perfringens, UniProt Q8XL08); assay: biochemical; parameters: Ratio a/b: reference not given here
Chain of bacterial O-GlcNAcase (bOGA) (NagJ from Clostridium perfringens) (Q8XL08 31-1001 limits assumed): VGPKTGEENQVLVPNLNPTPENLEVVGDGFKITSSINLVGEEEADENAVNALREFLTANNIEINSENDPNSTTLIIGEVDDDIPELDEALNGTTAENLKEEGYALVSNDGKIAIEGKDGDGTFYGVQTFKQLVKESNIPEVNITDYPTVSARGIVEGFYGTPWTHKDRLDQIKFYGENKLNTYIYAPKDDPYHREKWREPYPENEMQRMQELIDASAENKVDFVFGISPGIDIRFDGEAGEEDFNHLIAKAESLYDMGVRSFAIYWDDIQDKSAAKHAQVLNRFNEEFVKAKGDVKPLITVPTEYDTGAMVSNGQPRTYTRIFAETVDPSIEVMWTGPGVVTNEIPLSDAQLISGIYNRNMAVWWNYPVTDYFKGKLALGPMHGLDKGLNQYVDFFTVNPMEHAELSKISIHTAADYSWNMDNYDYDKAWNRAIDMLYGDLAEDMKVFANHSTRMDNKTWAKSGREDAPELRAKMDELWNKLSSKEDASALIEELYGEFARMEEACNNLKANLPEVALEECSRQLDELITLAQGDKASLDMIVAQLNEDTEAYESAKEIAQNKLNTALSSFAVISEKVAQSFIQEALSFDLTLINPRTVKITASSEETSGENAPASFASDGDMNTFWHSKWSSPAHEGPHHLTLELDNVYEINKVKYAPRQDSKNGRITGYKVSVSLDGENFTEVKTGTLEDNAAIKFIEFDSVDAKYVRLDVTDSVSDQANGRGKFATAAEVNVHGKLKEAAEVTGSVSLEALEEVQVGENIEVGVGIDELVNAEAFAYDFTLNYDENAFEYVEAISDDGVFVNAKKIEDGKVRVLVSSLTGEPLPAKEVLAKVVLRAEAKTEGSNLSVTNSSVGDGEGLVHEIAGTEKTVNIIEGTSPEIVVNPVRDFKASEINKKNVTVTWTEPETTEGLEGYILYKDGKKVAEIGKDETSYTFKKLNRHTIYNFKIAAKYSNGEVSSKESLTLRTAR

[2] = biological target: mixture of the human placental hexosaminidases HexA/HexB; assay: Steady state kinetics of hexosaminidases A and B with 4MU-GlcNAc; format: biochemical
HEK 293 cells = assay: Immunoblot: O-GlcNAc levels in treated HEK 293 cells; format: cell-based, human; conditions: FIG. 4B
bOGA = bOGA (Clostridium perfringens, UniProt Q8XL08); format: biochemical
Chain of bOGA (Q8XL08 31-1001 limits assumed): as above

human OGA (hOGA) = biological target: T2, human OGA (hOGA) (Homo sapiens, UniProt O60502); assay: Inhibition of human OGA (hOGA), methodology similar to bOGA; format: biochemical
T2 sequence (O60502 1-916): T1 sequence (O60502 1-916)

[3] = tested on: human lysosomal hexosaminidases HexA and HexB; conditions: background, literature; cited from earlier work
[4] = read-out: Ki values (in M) a) hexosaminidases

Row | Structure (SMILES) | inhibition of OGA (in words) (OGA) | Ki [1] [nM] | Ratio a/b [1] | Ki [2, 4] [nM] | other results
1 | CC(=O)NC1c2nc(C(=O)Nc3ccccc3)cn2C(CO)[C@@H](O)C1O (stereo partly drawn) [A] | only acts at the micromolar level |  |  |  | 
2 | CC(=O)NC1c2nc(CCc3ccccc3)cn2C(CO)[C@@H](O)[C@@H]1O (stereo partly drawn) [Compound III] |  | 0.0078 | 256 | 2 | 
3 | CC(C)C(=O)NC1c2nc(CCc3ccccc3)cn2C(CO)[C@@H](O)C1O (stereo partly drawn) [Compound II] |  | 0.0046 ± 0.0002 | 108000 |  | raising O-GlcNAc levels (HEK 293 cells): more efficient at raising O-GlcNAc levels than PUGNAc; activity in inhibiting bOGA from removing O-GlcNAc from proteins (bOGA): more active than PUGNAc; inhibition of hOGA (in words) (human OGA (hOGA)): active against human OGA; IC50 (human OGA (hOGA); hOGA, FIG. 5): 8 nM; inhibition of hOGA (in words) (human OGA (hOGA); listed as GlcNacstain): more potent inhibitor than PUGNac; Ki ([2]; HexA/HexB mixture, read-out: Ki values (in M) a) hexosaminidases): 500 nM; Ki ([2]; placental hexosaminidases, 0-400 nM inhibitor, FIG. 3, read-out: Ki): 520 ± 70 nM
4 | CCC(=O)NC1c2nc(CCc3ccccc3)cn2C(CO)[C@@H](O)[C@@H]1O (stereo partly drawn) [Compound IV] |  | 0.011 | 440 | 4.8 | 
5 | CC(=O)N[C@H]1/C(=N/OC(=O)Nc2ccccc2)O[C@H](CO)[C@@H](O)[C@@H]1O [PUGNAc, O-(2-acetamido-2-deoxy-D-glucopyrano-sylidene)amino-N-phenylcarbamate] | nanomolar inhibitor |  |  |  | inhibition of HexA and HexB (in words) [3]: potent inhibitor
6 | COC(=O)Cc1cn2c(n1)C(NC(C)=O)[C@@H](O)[C@H](O)C2CO (stereo partly drawn) [V, reference compound] |  | 0.003 | 2500 | 7.5 | 
